The results in this text go back to patent US11254663B2 (BRISTOL-MYERS SQUIBB COMPANY, priority 2019, dated 2022).

The structures appear in SMILES notation.

Chain of FXR (Q96RI1 262-486): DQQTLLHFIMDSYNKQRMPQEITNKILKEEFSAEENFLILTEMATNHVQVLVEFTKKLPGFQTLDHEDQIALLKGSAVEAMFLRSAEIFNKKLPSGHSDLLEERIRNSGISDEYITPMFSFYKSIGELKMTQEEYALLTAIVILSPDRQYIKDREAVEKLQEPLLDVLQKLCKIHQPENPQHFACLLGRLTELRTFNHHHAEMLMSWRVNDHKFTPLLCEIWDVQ

The assay has as its target FXR (Homo sapiens (Human), UniProt Q96RI1). As to the kind of experiment: transient human FXR/Gal4-luciferase reporter assay. Format: cell-based. Particulars: Gal4-hFXR fusion construct, HEK293 reporter cells; response relative to 8 μM GW-4064. The essentials:
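HEK293 cells stably carrying a 5×Gal4 response element–firefly luciferase reporter were transiently transfected overnight with a Gal4 DBD–human FXR LBD fusion plasmid. Compound was added in DMSO and cells were incubated overnight at 37 °C, 5% CO2. Activity was read as Steady-Glo luminescence.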
What is called EC50 is the concentration at which the effect is half-maximal. The compound `COc1ncc(-c2cccc(N(CC34CCC(c5ccc(C6(C#N)CC6)cc5)(CC3)OC4)C(=O)C34CC(F)(C3)C4)c2)cn1` [Example 351, N-((1-(4-(1-cyanocyclopropyl)phenyl)-2-oxabicyclo[2.2.2]octan-4-yl)methyl)-3-fluoro-N-(3-(2-methoxypyrimidin-5-yl)phenyl)bicyclo[1.1.1]pentane-1-carboxamide] returned an EC50 of 0.266 µM.
Then `CCOc1ncc(-c2cccc(N(CC34CCC(c5ccc(C6(C#N)CC6)cc5)(CC3)OC4)C(=O)C34CC(F)(C3)C4)c2)cn1` [Example 352, N-((1-(4-(1-cyanocyclopropyl)phenyl)-2-oxabicyclo[2.2.2]octan-4-yl)methyl)-N-(3-(2-ethoxypyrimidin-5-yl)phenyl)-3-fluorobicyclo[1.1.1]pentane-1-carboxamide], with 0.167 µM.
`CCOc1ncc(-c2cccc(N(CC34CCC(c5nc(C6CC6)no5)(CC3)OC4)C(=O)C34CC(F)(C3)C4)c2)cn1` [Example 353, N-((1-(3-cyclopropyl-1,2,4-oxadiazol-5-yl)-2-oxabicyclo[2.2.2]octan-4-yl)methyl)-N-(3-(2-ethoxypyrimidin-5-yl)phenyl)-3-fluorobicyclo[1.1.1]pentane-1-carboxamide] gave an EC50 of 0.328 µM. This EC50 is about 2-fold higher than that of the compound before.
Regarding `O=C(N(CC12CCC(c3cc(C(F)(F)F)ccn3)(CC1)CC2)c1cccc(-c2ccc(NS(=O)(=O)C3CC3)cc2)c1)C12CC(F)(C1)C2` [Example 354, N-(4′-(Cyclopropanesulfonamido)-[1,1′-biphenyl]-3-yl)-3-fluoro-N-((4-(4-(trifluoromethyl)pyridin-2-yl)bicyclo[2.2.2]octan-1-yl)methyl)bicyclo[1.1.1]pentane-1-carboxamide], the midpoint of the response, the EC50, lay at 0.489 µM. This EC50 and that of the compound before are within 1.5-fold of each other.
Then `CS(=O)(=O)Nc1ccc(-c2cccc(N(CC34CCC(c5cc(C(F)(F)F)ccn5)(CC3)CC4)C(=O)C34CC(F)(C3)C4)c2)cc1` [Example 355, 3-fluoro-N-(4′-(methylsulfonamido)-[1,1′-biphenyl]-3-yl)-N-((4-(4-(trifluoromethyl)pyridin-2-yl)bicyclo[2.2.2]octan-1-yl)methyl)bicyclo[1.1.1]pentane-1-carboxamide], with 0.78 µM; and `Cc1nc2ccc(-c3cccc(N(CC45CCC(c6cc(C(F)(F)F)ccn6)(CC4)CC5)C(=O)C45CC(F)(C4)C5)c3)cc2s1` [Example 356, 3-fluoro-N-(3-(2-methylbenzo[d]thiazol-6-yl)phenyl)-N-((4-(4-(trifluoromethyl)pyridin-2-yl)bicyclo[2.2.2]octan-1-yl)methyl)bicyclo[1.1.1]pentane-1-carboxamide], with 0.8 µM.
Then `CCOc1ncc(-c2cccc(N(CC34CCC(c5nc(C(C)(C)C)no5)(CC3)CC4)C(=O)C34CC(F)(C3)C4)c2)cn1` [Example 357, N-((4-(3-(tert-butyl)-1,2,4-oxadiazol-5-yl)bicyclo[2.2.2]octan-1-yl)methyl)-N-(3-(2-ethoxypyrimidin-5-yl)phenyl)-3-fluorobicyclo[1.1.1]pentane-1-carboxamide], with 0.083 µM.
Turning to `CC(C)(C)c1noc(C23CCC(CN(C(=O)C45CC(F)(C4)C5)c4cccc(-c5cnc(C6CC6)nc5)c4)(CC2)CC3)n1` [Example 358, N-((4-(3-(tert-butyl)-1,2,4-oxadiazol-5-yl)bicyclo[2.2.2]octan-1-yl)methyl)-N-(3-(2-cyclopropylpyrimidin-5-yl)phenyl)-3-fluorobicyclo[1.1.1]pentane-1-carboxamide], the half-maximal effective concentration (EC50) turned out to be 0.154 µM. Compared with the last compound, the EC50 is about 1.9-fold higher.
For the compound `CCOc1ccc(-c2cccc(N(CC34CCC(c5nc(C(C)(C)C)no5)(CC3)CC4)C(=O)C34CC(F)(C3)C4)c2)cc1` [Example 359, N-((4-(3-(tert-butyl)-1,2,4-oxadiazol-5-yl)bicyclo[2.2.2]octan-1-yl)methyl)-N-(4′-ethoxy-[1,1′-biphenyl]-3-yl)-3-fluorobicyclo[1.1.1]pentane-1-carboxamide], the midpoint of the response, the EC50, lay at 0.151 µM.
